What was measured:
Assay in all cases: relative viability (nuclei count vs DMSO), 5 days (fraction); higher = more cells survive
[1] = compound: O=C(C[C@H]1NCCC[C@@H]1O)Cn1cnc2cc(Br)c(Cl)cc2c1=O (racemic) [Halofuginone] + CCNC(=O)c1noc(-c2cc(C(C)C)c(O)cc2O)c1-c1ccc(CN2CCOCC2)cc1 [Luminespib] (partner 0.01 µM)
In short: (§1)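 Five library-drug doses in √10 steps were combined with a fixed anchor-drug dose, or a single drug was given alone, by pin tool to lung cancer cell lines in 1536-well plates the day after seeding. Nuclei were stained and counted after 5 days. Relative viability is the nuclei count in treated wells over that in vehicle wells, taken as the median of duplicate plates.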

Cediranib + OSI-027 = compound: COc1cc2c(Oc3ccc4[nH]c(C)cc4c3F)ncnc2cc1OCCCN1CCCC1 [Cediranib] + COc1cccc2cc(-c3nc([C@H]4CC[C@H](C(=O)O)CC4)n4ncnc(N)c34)[nH]c12 [OSI-027] (partner 0.5 µM)
In short: as §1

Halofuginone + OSI-027 = compound: O=C(C[C@H]1NCCC[C@@H]1O)Cn1cnc2cc(Br)c(Cl)cc2c1=O (racemic) [Halofuginone] + COc1cccc2cc(-c3nc([C@H]4CC[C@H](C(=O)O)CC4)n4ncnc(N)c34)[nH]c12 [OSI-027] (partner 0.5 µM)
In short: as §1

Decitabine + OSI-027 = compound: Nc1ncn([C@H]2C[C@H](O)[C@@H](CO)O2)c(=O)n1 [Decitabine] + COc1cccc2cc(-c3nc([C@H]4CC[C@H](C(=O)O)CC4)n4ncnc(N)c34)[nH]c12 [OSI-027] (partner 0.5 µM)
In short: as §1

NCI-H522
relative viability ([1]; first compound 0.001 µM): 1.14
relative viability ([1]; first compound 0.003162 µM): 1.81
relative viability ([1]; first compound 0.01 µM): 1.12
relative viability ([1]; first compound 0.03162 µM): 1.28
relative viability ([1]; first compound 0.1 µM): 1.09
relative viability (Cediranib + OSI-027; first compound 0.04 µM): 0.719
relative viability (Cediranib + OSI-027; first compound 0.1265 µM): 0.77
relative viability (Cediranib + OSI-027; first compound 0.4 µM): 0.686
relative viability (Cediranib + OSI-027; first compound 1.265 µM): 0.707
relative viability (Cediranib + OSI-027; first compound 4 µM): 0.694
relative viability (Halofuginone + OSI-027; first compound 0.001 µM): 0.734
relative viability (Halofuginone + OSI-027; first compound 0.003162 µM): 0.707
relative viability (Halofuginone + OSI-027; first compound 0.01 µM): 0.721
relative viability (Halofuginone + OSI-027; first compound 0.03162 µM): 0.689
relative viability (Halofuginone + OSI-027; first compound 0.1 µM): 0.605
relative viability (Decitabine + OSI-027; first compound 0.04 µM): 0.695
relative viability (Decitabine + OSI-027; first compound 0.1265 µM): 0.827
relative viability (Decitabine + OSI-027; first compound 0.4 µM): 0.561
relative viability (Decitabine + OSI-027; first compound 1.265 µM): 0.609
relative viability (Decitabine + OSI-027; first compound 4 µM): 0.582

NCI-H596
relative viability ([1]; first compound 0.001 µM): 1.02
relative viability ([1]; first compound 0.003162 µM): 1.23
relative viability ([1]; first compound 0.01 µM): 1.06
relative viability ([1]; first compound 0.03162 µM): 0.941
relative viability ([1]; first compound 0.1 µM): 0.324
relative viability (Cediranib + OSI-027; first compound 0.04 µM): 0.775
relative viability (Cediranib + OSI-027; first compound 0.1265 µM): 0.815
relative viability (Cediranib + OSI-027; first compound 0.4 µM): 0.723
relative viability (Cediranib + OSI-027; first compound 4 µM): 0.788
relative viability (Halofuginone + OSI-027; first compound 0.001 µM): 0.923
relative viability (Halofuginone + OSI-027; first compound 0.003162 µM): 0.938
relative viability (Halofuginone + OSI-027; first compound 0.01 µM): 0.845
relative viability (Halofuginone + OSI-027; first compound 0.03162 µM): 0.67
relative viability (Halofuginone + OSI-027; first compound 0.1 µM): 0.354
relative viability (Decitabine + OSI-027; first compound 0.04 µM): 0.606
relative viability (Decitabine + OSI-027; first compound 0.1265 µM): 0.793
relative viability (Decitabine + OSI-027; first compound 1.265 µM): 0.581
relative viability (Decitabine + OSI-027; first compound 4 µM): 0.477

NCI-H647
relative viability ([1]; first compound 0.001 µM): 0.141
relative viability ([1]; first compound 0.003162 µM): 0.153
relative viability ([1]; first compound 0.01 µM): 0.147
relative viability ([1]; first compound 0.03162 µM): 0.137
relative viability ([1]; first compound 0.1 µM): 0.129
relative viability (Cediranib + OSI-027; first compound 0.04 µM): 0.614
relative viability (Cediranib + OSI-027; first compound 0.1265 µM): 0.694
relative viability (Cediranib + OSI-027; first compound 0.4 µM): 0.549
relative viability (Cediranib + OSI-027; first compound 1.265 µM): 0.49
relative viability (Cediranib + OSI-027; first compound 4 µM): 0.841
relative viability (Halofuginone + OSI-027; first compound 0.001 µM): 0.654
relative viability (Halofuginone + OSI-027; first compound 0.003162 µM): 0.623
relative viability (Halofuginone + OSI-027; first compound 0.01 µM): 0.618
relative viability (Halofuginone + OSI-027; first compound 0.03162 µM): 0.715
relative viability (Halofuginone + OSI-027; first compound 0.1 µM): 0.334
relative viability (Decitabine + OSI-027; first compound 0.04 µM): 0.648
relative viability (Decitabine + OSI-027; first compound 0.1265 µM): 0.549
relative viability (Decitabine + OSI-027; first compound 0.4 µM): 0.403
relative viability (Decitabine + OSI-027; first compound 1.265 µM): 0.152
relative viability (Decitabine + OSI-027; first compound 4 µM): 0.201

NCI-H650
relative viability ([1]; first compound 0.001 µM): 0.793
relative viability ([1]; first compound 0.003162 µM): 0.738
relative viability ([1]; first compound 0.01 µM): 0.822
relative viability ([1]; first compound 0.03162 µM): 0.667
relative viability ([1]; first compound 0.1 µM): 0.59
relative viability (Cediranib + OSI-027; first compound 0.04 µM): 0.485
relative viability (Cediranib + OSI-027; first compound 0.1265 µM): 0.521
relative viability (Cediranib + OSI-027; first compound 0.4 µM): 0.508
relative viability (Cediranib + OSI-027; first compound 1.265 µM): 0.499
relative viability (Cediranib + OSI-027; first compound 4 µM): 0.542
relative viability (Halofuginone + OSI-027; first compound 0.001 µM): 0.531
relative viability (Halofuginone + OSI-027; first compound 0.003162 µM): 0.59
relative viability (Halofuginone + OSI-027; first compound 0.01 µM): 0.506
relative viability (Halofuginone + OSI-027; first compound 0.03162 µM): 0.492
relative viability (Halofuginone + OSI-027; first compound 0.1 µM): 0.533
relative viability (Decitabine + OSI-027; first compound 0.04 µM): 0.462
relative viability (Decitabine + OSI-027; first compound 0.1265 µM): 0.454
relative viability (Decitabine + OSI-027; first compound 0.4 µM): 0.306
relative viability (Decitabine + OSI-027; first compound 1.265 µM): 0.291
relative viability (Decitabine + OSI-027; first compound 4 µM): 0.276

NCI-H661
relative viability ([1]; first compound 0.001 µM): 0.83
relative viability ([1]; first compound 0.003162 µM): 0.953
relative viability ([1]; first compound 0.01 µM): 0.88
relative viability ([1]; first compound 0.03162 µM): 0.696
relative viability ([1]; first compound 0.1 µM): 0.504
relative viability (Cediranib + OSI-027; first compound 0.04 µM): 0.734
relative viability (Cediranib + OSI-027; first compound 0.1265 µM): 0.686
relative viability (Cediranib + OSI-027; first compound 0.4 µM): 0.71
relative viability (Cediranib + OSI-027; first compound 1.265 µM): 0.686
relative viability (Cediranib + OSI-027; first compound 4 µM): 0.669
relative viability (Halofuginone + OSI-027; first compound 0.001 µM): 0.776
relative viability (Halofuginone + OSI-027; first compound 0.003162 µM): 0.685
relative viability (Halofuginone + OSI-027; first compound 0.01 µM): 0.679
relative viability (Halofuginone + OSI-027; first compound 0.03162 µM): 0.611
relative viability (Halofuginone + OSI-027; first compound 0.1 µM): 0.499
relative viability (Decitabine + OSI-027; first compound 0.04 µM): 0.55
relative viability (Decitabine + OSI-027; first compound 0.1265 µM): 0.628
relative viability (Decitabine + OSI-027; first compound 0.4 µM): 0.474
relative viability (Decitabine + OSI-027; first compound 1.265 µM): 0.374
relative viability (Decitabine + OSI-027; first compound 4 µM): 0.346

NCI-H727
relative viability ([1]; first compound 0.001 µM): 0.258
relative viability ([1]; first compound 0.003162 µM): 0.327
relative viability ([1]; first compound 0.01 µM): 0.435
relative viability ([1]; first compound 0.03162 µM): 0.389
relative viability ([1]; first compound 0.1 µM): 0.355
relative viability (Cediranib + OSI-027; first compound 0.1265 µM): 0.486
relative viability (Cediranib + OSI-027; first compound 0.4 µM): 0.523
relative viability (Cediranib + OSI-027; first compound 1.265 µM): 0.468
relative viability (Cediranib + OSI-027; first compound 4 µM): 0.617
relative viability (Halofuginone + OSI-027; first compound 0.001 µM): 0.6
relative viability (Halofuginone + OSI-027; first compound 0.003162 µM): 0.572
relative viability (Halofuginone + OSI-027; first compound 0.01 µM): 0.713
relative viability (Halofuginone + OSI-027; first compound 0.03162 µM): 0.709
relative viability (Halofuginone + OSI-027; first compound 0.1 µM): 0.411
relative viability (Decitabine + OSI-027; first compound 0.04 µM): 0.485
relative viability (Decitabine + OSI-027; first compound 0.1265 µM): 0.65
relative viability (Decitabine + OSI-027; first compound 0.4 µM): 0.477
relative viability (Decitabine + OSI-027; first compound 1.265 µM): 0.57
relative viability (Decitabine + OSI-027; first compound 4 µM): 0.426

NCI-H838
relative viability ([1]; first compound 0.001 µM): 0.366
relative viability ([1]; first compound 0.003162 µM): 0.257
relative viability ([1]; first compound 0.01 µM): 0.335
relative viability ([1]; first compound 0.03162 µM): 0.349
relative viability ([1]; first compound 0.1 µM): 0.158
relative viability (Cediranib + OSI-027; first compound 0.04 µM): 0.41
relative viability (Cediranib + OSI-027; first compound 0.1265 µM): 0.364
relative viability (Cediranib + OSI-027; first compound 0.4 µM): 0.379
relative viability (Cediranib + OSI-027; first compound 1.265 µM): 0.348
relative viability (Cediranib + OSI-027; first compound 4 µM): 0.483
relative viability (Halofuginone + OSI-027; first compound 0.001 µM): 0.39
relative viability (Halofuginone + OSI-027; first compound 0.003162 µM): 0.414
relative viability (Halofuginone + OSI-027; first compound 0.01 µM): 0.413
relative viability (Halofuginone + OSI-027; first compound 0.03162 µM): 0.339
relative viability (Halofuginone + OSI-027; first compound 0.1 µM): 0.16
relative viability (Decitabine + OSI-027; first compound 0.04 µM): 0.359
relative viability (Decitabine + OSI-027; first compound 0.1265 µM): 0.324
relative viability (Decitabine + OSI-027; first compound 0.4 µM): 0.279
relative viability (Decitabine + OSI-027; first compound 1.265 µM): 0.273
relative viability (Decitabine + OSI-027; first compound 4 µM): 0.29

NCI-H1355
relative viability ([1]; first compound 0.001 µM): 0.716
relative viability ([1]; first compound 0.003162 µM): 0.635
relative viability ([1]; first compound 0.01 µM): 0.672
relative viability ([1]; first compound 0.03162 µM): 0.672
relative viability ([1]; first compound 0.1 µM): 0.579
relative viability (Cediranib + OSI-027; first compound 0.04 µM): 0.38
relative viability (Cediranib + OSI-027; first compound 0.1265 µM): 0.363
relative viability (Cediranib + OSI-027; first compound 0.4 µM): 0.387
relative viability (Cediranib + OSI-027; first compound 1.265 µM): 0.34
relative viability (Cediranib + OSI-027; first compound 4 µM): 0.449
relative viability (Halofuginone + OSI-027; first compound 0.001 µM): 0.41
relative viability (Halofuginone + OSI-027; first compound 0.003162 µM): 0.423
relative viability (Halofuginone + OSI-027; first compound 0.01 µM): 0.393
relative viability (Halofuginone + OSI-027; first compound 0.03162 µM): 0.463
relative viability (Halofuginone + OSI-027; first compound 0.1 µM): 0.303
relative viability (Decitabine + OSI-027; first compound 0.04 µM): 0.352
relative viability (Decitabine + OSI-027; first compound 0.1265 µM): 0.398
relative viability (Decitabine + OSI-027; first compound 0.4 µM): 0.289
relative viability (Decitabine + OSI-027; first compound 1.265 µM): 0.288
relative viability (Decitabine + OSI-027; first compound 4 µM): 0.267

— the supplement of paper PMC10307832
